Results reported in the NIST ThermoML archive (doi:10.1021/acs.jced.8b00196).
Numbers after ± are expanded uncertainties.

What was measured:
[1] = Molar enthalpy of transition or fusion; details: Crystal; DSC
[2] = Crystal; DSC

Molar enthalpy of transition or fusion [1]: 4.21 ± 0.311 kcal/mol
Triple point temperature [2]: 323.4 ± 2.1 K
SMILES: O=C(c1ccccc1)c1ccccc1 [benzophenone]
